Patent US7897628B2, “Aryl carbonyl derivatives as therapeutic agents” (Novo Nordisk A/S, priority 2002, dated 2011)

system: glucokinase; assay: Liver specificity: activity in isolated hepatocytes (Glucokinase Activity Assay (II)) compared to Ins-1 cells (Glucokinase Activity Assay (III)); format: cell-based; details: Glucokinase Activity Assay (II) (isolated hepatocytes) compared to Glucokinase Activity Assay (III) (Ins-1 cells)
Source text: For the purpose of describing this invention, the potential liver selectivity of a glucokinase activator may be assayed by comparison of the results obtained in response to the glucokinase activator in isolated hepatocytes and the results obtained in response to the glucokinase activator in Ins-1 cells. […] The activity of the glucokinase activator in Glucokinase Activity Assay (II) (hepatocytes) may for instance be at least 1.1 fold higher, such as at least 1.2 fold higher, for instance at least 1.3 fold higher, such as at least 1.4 fold higher, for instance 1.5 fold higher, such as at least 1.6 fold higher, for instance at least 1.7 fold higher, such as at least 1.8 fold higher, for instance at least 1.9 fold higher, such as at least 2.0 fold higher, for instance at least a 3.0 fold higher, such as at least a 4.0 fold higher, for instance at least 5.0 fold higher, such as at least 10 fold higher than the activity of the glucokinase activator in Glucokinase Activity Assay (III) (Ins-1 cells). Alternatively, the glucokinase activator may show no activity in the Ins-1 cells measured as described in the Glucokinase Activity Assay (III), while showing a significant activity in hepatocytes measured as described in the Glucokinase Activity Assay (II).

liver specific glucokinase activator (significantly higher activity in isolated hepatocytes than in Ins-1 cells) | SMILES
liver specific glucokinase activators | COc1cccc(F)c1Oc1ccc(F)cc1NC(=O)Nc1nc(CC(=O)NCCN2CCOCC2)cs1 [2-(2-{3-[5-fluoro-2-(2-fluoro-6-methoxyphenoxy)phenyl]ureido}thiazol-4-yl)-N-(2-morpholin-4-ylethyl)acetamide]
liver specific glucokinase activators | CCOC(=O)Cc1csc(NC(=O)Nc2cc(F)ccc2Oc2cccc(OC)c2OC)n1 [(2-{3-[2-(2,3-dimethoxyphenoxy)-5-fluorophenyl]ureido}thiazol-4-yl)acetic acid ethyl ester]
liver specific glucokinase activators | COc1cccc(F)c1Oc1ccc(F)cc1NC(=O)Nc1nc(CC(=O)O)cs1 [(2-{3-[5-fluoro-2-(2-fluoro-6-methoxyphenoxy)phenyl]ureido}thiazol-4-yl)acetic acid]
liver specific glucokinase activators | COc1cccc(F)c1Oc1ccc(F)cc1NC(=O)Nc1nc(CC(=O)NCC(=O)O)cs1 [[2-(2-{3-[5-fluoro-2-(2-fluoro-6-methoxyphenoxy)phenyl]ureido}thiazol-4-yl)acetylamino]acetic acid]

Second part, the compound before the results:

SMILES | liver specific glucokinase activator (significantly higher activity in isolated hepatocytes than in Ins-1 cells)
CCOC(=O)c1csc(NC(=O)Nc2cc(F)ccc2Oc2cccc(OC)c2OC)n1 [2-{3-[2-(2,3-dimethoxyphenoxy)-5-fluorophenyl]ureido}thiazole-4-carboxylic acid ethyl ester] | liver specific glucokinase activators
COc1cccc(Oc2ccc(F)cc2NC(=O)Nc2nc(C(=O)O)cs2)c1OC [2-{3-[2-(2,3-dimethoxyphenoxy)-5-fluorophenyl]ureido}thiazole-4-carboxylic acid] | liver specific glucokinase activators
Cc1ccc(NC(=O)Nc2nc(CC(=O)O)cs2)c(C(=O)C2CCCC2)c1 [{2-[3-(2-cyclopentanecarbonyl-4-methyl-phenyl)-ureido]-thiazol-4-yl}-acetic acid] | liver specific glucokinase activators
Cc1ccc(NC(=O)Nc2nc(CC(=O)O)cs2)c(OCC(C)C)c1 [{2-[3-(4-methyl-2-[2-methylpropoxy]phenyl)-ureido]-thiazol-4-yl}-acetic acid] | liver specific glucokinase activators
